In the NIST ThermoML archive (doi:10.1021/je500380x):

Assay: mn = molality of the nth substance listed, in mol/kg
Details: 100 kPa, Liquid; for viscosity: Falling or rolling sphere viscometry; for mass density: Vibrating tube method; for electrical conductivity: Alternating current cell with electrodes

CCC(=O)OCCN1CCNCC1 [2-(piperazin-1-yl)ethyl propionate] + CCO
Details	electrical conductivity [S/m]	mass density [kg/m3]	viscosity [mPa·s]
308.15 K, m1 = 0.05	–	779.32	–
308.15 K, m1 = 0.1	–	782.05	–
308.15 K, m1 = 0.1985	–	787.4	–
308.15 K, m1 = 0.3005	–	793.06	–
308.15 K, m1 = 0.4001	–	798.51	–
308.15 K, m1 = 0.5007	–	804.18	–
308.15 K, m1 = 0.5998	–	809.68	–
308.15 K, m1 = 0.7002	–	815.4	–
308.15 K, m1 = 0.8	–	821.15	–
308.15 K, m1 = 0.8957	–	826.9	–
308.15 K, m1 = 1	–	832.84	1.841
308.15 K, m1 = 1.198	–	844.51	2.166
308.15 K, m1 = 1.401	–	857.11	2.605
308.15 K, m1 = 1.602	–	869.1	3.182
308.15 K, m1 = 1.8	–	881.5	3.932
308.15 K, m1 = 2.001	–	894.88	5.113
308.15 K, m1 = 2.198	–	906.86	6.285
308.15 K, m1 = 2.397	–	920.09	7.874
308.15 K, m1 = 2.597	–	933.36	11.18
308.15 K, m1 = 2.796	–	946.62	14.4
308.15 K, m1 = 3.006	–	960.85	20.29
313.15 K, m1 = 0.05	0.0197	774.92	0.856
313.15 K, m1 = 0.1	0.0323	777.65	0.893
313.15 K, m1 = 0.1985	0.0513	783	0.939
313.15 K, m1 = 0.3005	0.0674	788.67	1.003
313.15 K, m1 = 0.4001	0.0806	794.13	1.066
313.15 K, m1 = 0.5007	0.0937	799.81	1.145
313.15 K, m1 = 0.5998	0.1048	805.32	1.225
313.15 K, m1 = 0.7002	0.1144	811.06	1.317
313.15 K, m1 = 0.8	0.125	816.82	1.435
313.15 K, m1 = 0.8957	0.1335	822.6	1.529
313.15 K, m1 = 1	0.1433	828.55	1.655
313.15 K, m1 = 1.198	0.158	840.27	1.94
313.15 K, m1 = 1.401	0.1717	852.89	2.319
313.15 K, m1 = 1.602	0.1817	864.93	2.817
313.15 K, m1 = 1.8	0.189	877.36	3.459
313.15 K, m1 = 2.001	0.1932	890.78	4.464
313.15 K, m1 = 2.198	0.1946	902.73	5.328
313.15 K, m1 = 2.397	0.193	916.08	6.774
313.15 K, m1 = 2.597	0.1842	929.4	9.473
313.15 K, m1 = 2.796	0.177	942.71	12.12
313.15 K, m1 = 3.006	0.166	956.85	16.88
318.15 K, m1 = 0.05	0.0198	770.48	0.787
318.15 K, m1 = 0.1	0.0328	773.2	0.82
318.15 K, m1 = 0.1985	0.0525	778.55	0.86
318.15 K, m1 = 0.3005	0.0694	784.23	0.916
318.15 K, m1 = 0.4001	0.0833	789.7	0.972
318.15 K, m1 = 0.5007	0.0972	795.39	1.043
318.15 K, m1 = 0.5998	0.109	800.91	1.113
318.15 K, m1 = 0.7002	0.119	806.67	1.194
318.15 K, m1 = 0.8	0.1309	812.45	1.299
318.15 K, m1 = 0.8957	0.14	818.24	1.381
318.15 K, m1 = 1	0.1514	824.21	1.492
318.15 K, m1 = 1.198	0.168	835.97	1.741
318.15 K, m1 = 1.401	0.1837	848.63	2.071
318.15 K, m1 = 1.602	0.195	860.7	2.503
318.15 K, m1 = 1.8	0.204	873.18	3.057
318.15 K, m1 = 2.001	0.211	886.65	3.912
318.15 K, m1 = 2.198	0.214	898.68	4.647
318.15 K, m1 = 2.397	0.212	912.04	5.859
318.15 K, m1 = 2.597	0.207	925.4	8.129
318.15 K, m1 = 2.796	0.199	938.75	10.27
318.15 K, m1 = 3.006	0.188	953.35	14.2
323.15 K, m1 = 0.05	0.0198	765.98	0.725
323.15 K, m1 = 0.1	0.0331	768.7	0.755
323.15 K, m1 = 0.1985	0.0536	774.05	0.79
323.15 K, m1 = 0.3005	0.0711	779.73	0.84
323.15 K, m1 = 0.4001	0.0856	785.21	0.889
323.15 K, m1 = 0.5007	0.1004	790.92	0.951
323.15 K, m1 = 0.5998	0.1131	796.46	1.014
323.15 K, m1 = 0.7002	0.1239	802.23	1.086
323.15 K, m1 = 0.8	0.137	808.02	1.178
323.15 K, m1 = 0.8957	0.146	813.82	1.251
323.15 K, m1 = 1	0.159	819.82	1.348
323.15 K, m1 = 1.198	0.178	831.61	1.567
323.15 K, m1 = 1.401	0.196	844.32	1.855
323.15 K, m1 = 1.602	0.209	856.43	2.446
323.15 K, m1 = 1.8	0.222	868.95	2.713
323.15 K, m1 = 2.001	0.231	882.65	3.443
323.15 K, m1 = 2.198	0.237	894.55	4.068
323.15 K, m1 = 2.397	0.236	907.95	5.091
323.15 K, m1 = 2.597	0.232	921.36	6.903
323.15 K, m1 = 2.796	0.224	934.75	8.728
323.15 K, m1 = 3.006	0.213	949.41	12.02
